Assay results reported in ChEMBL document CHEMBL1201862, “PubChem BioAssay data set” (2004).
Blank lines part the entries; values can stand above or below the compound they belong to. Activity calls are given as the source filed them. Cut-off read from the data, not from the text of the source, for most assays here: actives have a measured EC50 and inactives only a lower limit.

Legend:
[1] = target: T1, Fatty acid synthase (Homo sapiens, UniProt P49327); experiment: inhibition of human FAS-TE enzyme activity – biochemical, kinetic fluorescence intensity, dose response (AID 624326); format: functional;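 note: rate of fluorescence rise from hydrolysis of a fluorogenic O-methyl fluorescein ester substrate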
[2] = target: T1, Fatty acid synthase; experiment: inhibition of human FAS-TE enzyme activity – biochemical, endpoint fluorescence intensity, uHTS hits, dose response (AID 624327); format: functional;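 note: fluorescence from hydrolysis of an O-methyl fluorescein acyl ester substrate by the enzyme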
[3] = DRD fibroblast viability loss – cell-based, non-viral oncogenic, luminescence, dose response (AID 1934); format: functional; conditions: Homo sapiens
[4] = Luminescence Cell-Based Dose Confirmation HTS to Identify Inhibitors of Platelet Dense Granule Release. [Related pubchem assays: 1663 (Primary HTS), 1678 (Summary of Project)]; format: functional
[5] = cells; format: functional, cell-based
[6] = target: Luciferin 4-monooxygenase (Photinus pyralis, UniProt P08659); experiment: inhibition of purified Photinus pyralis luciferase – biochemical, luminescence, dose response (AID 1891)
[7] = test system: BJ; experiment: BJ-TERT-LT-ST fibroblast viability loss – cell-based, RAS-independent, luminescence, dose response (AID 1935); format: functional; conditions: Homo sapiens;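 note: BJ fibroblasts immortalized with TERT plus LT and ST oncogenes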
[8] = cells; format: functional, cell-based; remark: listed apart in the source
[9] = test system: BJ; experiment: BJ-TERT fibroblast viability loss – cell-based, RAS-independent, luminescence, dose response (AID 1933); format: functional; conditions: Homo sapiens
[10] = test system: BJ; experiment: cells; format: functional, cell-based; conditions: Homo sapiens
[11] = target: T2, RNA-binding protein pos-1 (Caenorhabditis elegans, UniProt G5EF15); experiment: disruptors of C. elegans POS-1 RNA interaction – biochemical, fluorescence polarization, dose response (AID 1964);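 note: purified POS-1 fused to maltose binding protein made in E. coli; potency of compounds blocking POS-1 binding to fluorescent RNA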
T2 sequence (G5EF15 whole entry): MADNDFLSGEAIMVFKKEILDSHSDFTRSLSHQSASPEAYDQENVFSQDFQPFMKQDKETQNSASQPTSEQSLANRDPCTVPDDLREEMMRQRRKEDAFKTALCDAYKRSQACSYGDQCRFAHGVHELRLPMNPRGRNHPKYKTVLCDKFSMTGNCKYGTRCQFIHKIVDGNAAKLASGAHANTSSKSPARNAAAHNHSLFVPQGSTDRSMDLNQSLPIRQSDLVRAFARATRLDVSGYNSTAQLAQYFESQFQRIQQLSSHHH

[12] = target: T3, Heat shock factor protein 1 (Mus musculus, UniProt P38532); experiment: decrease of HSF1-responsive luciferase luminescence – cell-based, NIH3T3, dose retest, confirmation (AID 2382); format: functional;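 note: NIH3T3 fibroblasts with HSF1-driven luciferase reporter stressed by proteasome inhibitor MG132; luminescence from HSF1-driven luciferase expression after 8 hours of MG132 stress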
T3 sequence (P38532 whole entry): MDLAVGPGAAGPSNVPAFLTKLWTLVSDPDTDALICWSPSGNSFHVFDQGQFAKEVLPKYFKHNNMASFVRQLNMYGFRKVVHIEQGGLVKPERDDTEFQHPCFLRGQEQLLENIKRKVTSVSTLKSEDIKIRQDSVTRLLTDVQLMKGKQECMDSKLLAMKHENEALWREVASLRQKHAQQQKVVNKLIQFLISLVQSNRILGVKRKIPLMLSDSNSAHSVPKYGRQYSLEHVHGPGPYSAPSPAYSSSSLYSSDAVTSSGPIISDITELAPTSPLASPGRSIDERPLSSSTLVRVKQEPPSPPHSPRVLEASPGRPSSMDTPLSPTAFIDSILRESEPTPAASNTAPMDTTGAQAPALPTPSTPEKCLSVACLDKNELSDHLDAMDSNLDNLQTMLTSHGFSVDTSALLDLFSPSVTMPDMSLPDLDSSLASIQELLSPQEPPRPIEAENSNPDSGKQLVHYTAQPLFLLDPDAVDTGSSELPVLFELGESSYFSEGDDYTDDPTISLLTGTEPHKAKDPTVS

[13] = target: T4, Histone-lysine N-methyltransferase NSD2 (Homo sapiens, UniProt O96028); format: biochemical
T4 sequence (O96028 whole entry): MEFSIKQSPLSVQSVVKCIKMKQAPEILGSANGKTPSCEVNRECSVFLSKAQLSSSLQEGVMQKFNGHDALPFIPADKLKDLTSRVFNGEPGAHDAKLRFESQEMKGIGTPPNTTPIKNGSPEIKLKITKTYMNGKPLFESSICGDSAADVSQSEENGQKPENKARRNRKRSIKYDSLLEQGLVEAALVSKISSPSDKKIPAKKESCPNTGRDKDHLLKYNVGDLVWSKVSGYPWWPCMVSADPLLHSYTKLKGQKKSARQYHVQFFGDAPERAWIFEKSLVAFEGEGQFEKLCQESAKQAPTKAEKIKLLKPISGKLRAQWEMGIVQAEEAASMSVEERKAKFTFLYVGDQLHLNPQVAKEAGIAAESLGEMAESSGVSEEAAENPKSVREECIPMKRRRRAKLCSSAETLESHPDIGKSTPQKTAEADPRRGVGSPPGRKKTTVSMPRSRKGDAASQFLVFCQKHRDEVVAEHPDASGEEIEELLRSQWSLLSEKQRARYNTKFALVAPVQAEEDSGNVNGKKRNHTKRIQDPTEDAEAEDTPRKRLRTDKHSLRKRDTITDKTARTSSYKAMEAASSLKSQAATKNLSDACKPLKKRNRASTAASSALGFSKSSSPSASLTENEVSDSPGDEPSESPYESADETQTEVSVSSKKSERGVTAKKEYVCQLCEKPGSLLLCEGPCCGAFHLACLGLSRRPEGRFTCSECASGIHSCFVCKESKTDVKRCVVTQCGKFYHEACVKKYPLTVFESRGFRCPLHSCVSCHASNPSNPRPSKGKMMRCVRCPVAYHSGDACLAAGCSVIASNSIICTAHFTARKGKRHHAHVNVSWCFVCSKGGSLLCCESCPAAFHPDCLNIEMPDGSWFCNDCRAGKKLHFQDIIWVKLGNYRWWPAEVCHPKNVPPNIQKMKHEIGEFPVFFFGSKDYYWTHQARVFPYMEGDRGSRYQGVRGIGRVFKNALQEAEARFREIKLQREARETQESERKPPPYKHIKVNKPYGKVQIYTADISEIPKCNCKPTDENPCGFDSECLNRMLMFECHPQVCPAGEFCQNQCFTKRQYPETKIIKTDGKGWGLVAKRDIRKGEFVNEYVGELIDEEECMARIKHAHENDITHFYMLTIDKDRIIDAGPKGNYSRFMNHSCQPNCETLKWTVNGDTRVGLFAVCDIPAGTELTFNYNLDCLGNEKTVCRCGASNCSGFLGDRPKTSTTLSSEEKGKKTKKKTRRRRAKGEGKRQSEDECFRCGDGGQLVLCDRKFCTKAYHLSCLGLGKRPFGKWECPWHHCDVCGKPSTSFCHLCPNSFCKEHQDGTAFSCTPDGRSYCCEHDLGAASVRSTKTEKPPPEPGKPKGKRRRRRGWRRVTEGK

T1 sequence (P49327 whole entry): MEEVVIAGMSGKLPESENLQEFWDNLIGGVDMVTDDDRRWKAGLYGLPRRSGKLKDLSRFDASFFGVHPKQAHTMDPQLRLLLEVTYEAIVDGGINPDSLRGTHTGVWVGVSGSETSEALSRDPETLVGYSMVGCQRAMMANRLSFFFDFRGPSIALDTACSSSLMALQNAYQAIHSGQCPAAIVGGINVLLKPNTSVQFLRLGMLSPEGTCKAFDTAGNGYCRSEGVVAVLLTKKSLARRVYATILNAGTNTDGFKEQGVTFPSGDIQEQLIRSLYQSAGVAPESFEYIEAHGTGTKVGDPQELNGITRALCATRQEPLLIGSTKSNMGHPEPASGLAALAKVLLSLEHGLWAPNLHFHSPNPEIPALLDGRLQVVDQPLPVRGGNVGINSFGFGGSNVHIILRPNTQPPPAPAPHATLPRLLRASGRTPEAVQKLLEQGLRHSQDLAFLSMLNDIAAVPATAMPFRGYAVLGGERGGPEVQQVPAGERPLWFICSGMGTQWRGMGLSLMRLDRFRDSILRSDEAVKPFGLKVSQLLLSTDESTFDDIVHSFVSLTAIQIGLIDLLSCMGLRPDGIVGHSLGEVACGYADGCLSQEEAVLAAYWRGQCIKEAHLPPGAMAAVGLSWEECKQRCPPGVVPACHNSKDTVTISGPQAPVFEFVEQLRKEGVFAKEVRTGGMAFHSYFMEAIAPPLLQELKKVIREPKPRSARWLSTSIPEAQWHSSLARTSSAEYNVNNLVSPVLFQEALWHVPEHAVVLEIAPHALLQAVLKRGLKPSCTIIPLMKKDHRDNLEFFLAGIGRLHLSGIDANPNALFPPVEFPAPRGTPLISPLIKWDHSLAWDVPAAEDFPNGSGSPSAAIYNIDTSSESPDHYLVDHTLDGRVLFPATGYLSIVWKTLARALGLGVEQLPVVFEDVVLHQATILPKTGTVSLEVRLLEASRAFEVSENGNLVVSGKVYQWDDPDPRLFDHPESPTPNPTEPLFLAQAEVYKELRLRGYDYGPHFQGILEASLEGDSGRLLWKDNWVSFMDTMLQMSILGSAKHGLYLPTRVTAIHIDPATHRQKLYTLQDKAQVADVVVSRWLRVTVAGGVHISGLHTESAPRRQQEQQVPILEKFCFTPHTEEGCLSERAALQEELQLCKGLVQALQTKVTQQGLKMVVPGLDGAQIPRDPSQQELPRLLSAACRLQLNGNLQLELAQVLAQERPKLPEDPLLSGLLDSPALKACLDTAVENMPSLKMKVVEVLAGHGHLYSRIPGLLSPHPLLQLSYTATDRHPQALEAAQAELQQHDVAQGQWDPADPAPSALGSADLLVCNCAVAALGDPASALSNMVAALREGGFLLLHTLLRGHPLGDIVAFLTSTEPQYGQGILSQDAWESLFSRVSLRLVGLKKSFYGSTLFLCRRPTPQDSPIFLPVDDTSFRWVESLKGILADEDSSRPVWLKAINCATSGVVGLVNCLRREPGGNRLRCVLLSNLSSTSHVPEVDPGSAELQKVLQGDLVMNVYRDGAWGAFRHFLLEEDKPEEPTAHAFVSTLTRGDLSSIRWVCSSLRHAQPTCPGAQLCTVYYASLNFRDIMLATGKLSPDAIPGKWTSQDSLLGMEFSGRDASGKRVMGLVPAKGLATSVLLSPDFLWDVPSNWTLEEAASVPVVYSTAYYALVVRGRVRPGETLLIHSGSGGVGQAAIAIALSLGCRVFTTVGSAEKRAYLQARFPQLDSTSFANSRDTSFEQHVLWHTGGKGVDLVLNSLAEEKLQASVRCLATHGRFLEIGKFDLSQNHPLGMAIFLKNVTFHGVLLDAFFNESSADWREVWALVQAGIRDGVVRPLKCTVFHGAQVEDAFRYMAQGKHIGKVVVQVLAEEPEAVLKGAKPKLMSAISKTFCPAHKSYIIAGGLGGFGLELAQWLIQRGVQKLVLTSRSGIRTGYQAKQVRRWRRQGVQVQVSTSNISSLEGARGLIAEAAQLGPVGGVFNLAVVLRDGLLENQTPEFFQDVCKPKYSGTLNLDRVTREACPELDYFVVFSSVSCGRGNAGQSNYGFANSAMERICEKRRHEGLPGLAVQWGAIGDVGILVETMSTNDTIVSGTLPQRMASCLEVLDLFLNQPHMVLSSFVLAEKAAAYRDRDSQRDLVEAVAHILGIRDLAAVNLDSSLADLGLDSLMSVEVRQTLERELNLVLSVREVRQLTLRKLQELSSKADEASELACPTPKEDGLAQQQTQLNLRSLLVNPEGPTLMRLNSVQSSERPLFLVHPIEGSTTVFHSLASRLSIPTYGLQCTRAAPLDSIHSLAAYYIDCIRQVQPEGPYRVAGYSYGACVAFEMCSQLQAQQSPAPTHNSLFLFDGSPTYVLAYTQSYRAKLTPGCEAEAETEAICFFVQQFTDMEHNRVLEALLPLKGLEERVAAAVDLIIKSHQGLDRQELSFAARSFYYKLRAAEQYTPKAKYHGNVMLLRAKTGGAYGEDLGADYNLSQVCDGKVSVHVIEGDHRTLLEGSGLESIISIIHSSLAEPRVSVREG
Sequence of Luciferin 4-monooxygenase (P08659 whole entry): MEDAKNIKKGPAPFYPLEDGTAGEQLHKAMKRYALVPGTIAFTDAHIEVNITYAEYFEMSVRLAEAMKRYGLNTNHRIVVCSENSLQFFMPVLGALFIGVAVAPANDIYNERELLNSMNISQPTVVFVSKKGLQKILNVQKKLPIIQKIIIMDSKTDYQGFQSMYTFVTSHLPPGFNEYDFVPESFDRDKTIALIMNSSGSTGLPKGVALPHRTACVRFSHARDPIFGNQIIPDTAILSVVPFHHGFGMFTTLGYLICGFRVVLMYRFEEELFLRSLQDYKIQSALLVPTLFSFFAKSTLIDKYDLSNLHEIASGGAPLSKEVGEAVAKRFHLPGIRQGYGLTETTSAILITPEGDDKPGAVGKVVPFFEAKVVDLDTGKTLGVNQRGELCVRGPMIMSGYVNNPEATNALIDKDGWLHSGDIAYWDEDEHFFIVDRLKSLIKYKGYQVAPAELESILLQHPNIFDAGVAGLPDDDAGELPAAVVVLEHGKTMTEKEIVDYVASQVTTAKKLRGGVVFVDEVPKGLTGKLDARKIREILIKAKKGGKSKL

- IC50 [1]: 5.53 µM (active)
- IC50 [2]: 8.09 µM (active)
Structure (SMILES): Cc1ccc(NC(=O)c2cc([N+](=O)[O-])ccc2N2CCCC2)cc1

- IC50 [1]: 5.81 µM (active)
- IC50 [2]: 6.76 µM (active)
Structure (SMILES): CCOc1ccc(C(=O)COC(=O)c2cc([N+](=O)[O-])ccc2N2CCOCC2)cc1

- IC50 [1]: 13.2 µM (active)
- IC50 [2]: 11.9 µM (active)
Structure (SMILES): C[C@H](CO)N1C[C@H](C)[C@@H](CN(C)Cc2ccc(Cl)c(Cl)c2)Oc2c(NS(=O)(=O)c3ccc(F)cc3)cccc2C1=O

- IC50 [1]: 10.8 µM (active)
- IC50 [2]: 9.86 µM (active)
Structure (SMILES): O=C(N/N=C/c1ccc(Br)o1)/C(=C/c1ccc([N+](=O)[O-])cc1)NC(=O)c1ccccc1

More lines, now with the values behind:

Structure (SMILES): Cn1c(N/N=C/c2cc3ccccc3nc2Cl)nc2ccccc21
- EC50 [3]: 25.7 µM (active)
- EC50 [4]: 6.52 µM (active)
- EC50 [5]: 7.59 µM (active)
- EC50 [6]: 0.687 µM (active)
- EC50 [7]: > 150 µM (not active)
- EC50 [8]: > 350 µM (not active)
- EC50 [9]: 6.15 µM (inconclusive)
- EC50 [10]: 2.58 µM (active)

Structure (SMILES): C/C(=N/N=C/c1ccc(N(C)C)cc1)c1ccccc1
- EC50 [3]: 17.1 µM (active)
- EC50 [4]: 1.61 µM (active)
- EC50 [6]: 0.875 µM (active)
- EC50 [7]: > 150 µM (not active)
- EC50 [9]: 26.5 µM (active)
- EC50 [10]: 13.5 µM (active)

Structure (SMILES): CC(C)(C)c1ccc(/C=N/NC(=S)NC2CCCCC2)cc1
- IC50 [1]: 15.4 µM (active)
- IC50 [2]: 12.7 µM (active)

Structure (SMILES): Cc1cc(=O)n2c(n1)/C(=N\Nc1ccccc1)C(=O)N2
- EC50 [11]: 0.374 µM (inconclusive)
- EC50 [12]: > 195 µM (not active)

Structure (SMILES): O=C1c2cc(O)c(O)cc2OC(c2ccc(O)c(O)c2)C1O (configuration not stated)
- AC50 [13]: 12.9 µM (active)
